Measurements as given in patent US20200163984A1, “USE OF ISOVALERYL SPIRAMYCIN I, II AND/OR III IN MANUFACTURING MEDICAMENT FOR TREATING AND/OR PREVENTING TUMOR, AND MEDICAMENT” (SHENYANG FUYANG PHARMACEUTICAL TECHNOLOGY CO., LTD., priority 2017, published 2020).

Columns and labels:
[1] = system: transplanted tumor of HT-29 cells; test: HT-29 transplanted tumor in nude mice; conditions: for Inhibition Rate (%) / Tumor Weight: HT-29 nude mice; for Tumor Volume (mm3) (d30): d 30
Protocol: (§1) Then cell concentration was adjusted to 1×10^7/ml with matrigel, then each nude mouse was inoculated subcutaneously with 0.2 ml of cells at its right armpit and recorded as the first day of inoculation. When the tumor grows to be greater than or equal to 100 mm^3, the mice were randomly divided into 11 groups with 6 mice in each group: isovaleryl spiramycin I groups with doses of 25, 50 and 100 mg/kg, isovaleryl spiramycin II groups with doses of 25, 50 and 100 mg/kg, and isovaleryl spiramycin III groups with doses of 25, 50 and 100 mg/kg. Each group was continuously administered intragastrically for 30 days with a dose of 20 ml/kg. The mice were sacrificed the next day after drug withdrawal and the indicators were tested. The long diameter and short diameter of the tumor, and the body weight of each mouse were recorded every 3 days from drug administration to nude mouse sacrifice.
(§2) The body weight of the nude mice and the long diameter (a) and short diameter (b) of the transplanted tumor were measured every 3 days, and the tumor volume (v), relative tumor volume (RTV) and relative tumor proliferation rate (T/C) are calculated respectively according to the following formulas, wherein V=a×b^2/2; RTV=V/V0 (V0 is the tumor volume before administration, V is the tumor volume before sacrifice), and T/C (%)=treatment group RTV/model control group RTV×100%.
(§3) Each mouse was weighed and sacrificed. After the tumor was completely stripped off from the body of the mouse, the non-tumor tissues such as blood stains and fat were removed to weigh the tumor and calculate the tumor growth inhibition rate. The average tumor weight of each group of mice is used as an indicator of efficacy. Tumor growth inhibition rate (%)=(1−the average tumor weight of the treatment group/the average tumor weight of the model group)×100%.

[2] = system: transplanted tumor of mouse Lewis lung cancer; test: Transplanted tumor of mouse Lewis lung cancer; conditions: for Tumor Volume (mm3) (d 1) / Tumor Volume (mm3) (d30) / Relative Tumor Proliferation Rate (T/C) / Relative Tumor Volume (RTV): title prints KM mouse H22 cells; for Tumor Volume (mm3) (d30): d 30; for Body Weight (g) (d1) / Body Weight (g) (d 15): mouse, in vivo
Protocol: Lewis lung cancer cells were cultured in a RPMI 1640 culture medium containing 10% fetal bovine serum at 37° C. in a 5% CO2 incubator. The cells in the logarithmic growth phase were subjected to trypsinization with 0.25% trypsin, then the cells were collected to be centrifugated to remove the obtained supernatant, then were washed twice with sterile normal saline. […] The Lewis cells were adjusted to 1×10^7/mL in concentration and stored in ice water. 75% ethanol was used to disinfect the skin under the right armpits of the mice, and each C57BL/6 mouse was soon inoculated subcutaneously with 0.2 ml of the cells at its right armpit.
In the Lewis lung cancer model, the mice inoculated with the tumor were randomly divided into groups with 10 mice in each group the next day of inoculation. The groups included: a model control group, a positive drug cyclophosphamide control group (CTX, 30 mg/kg), isovaleryl spiramycin I groups with doses of 13, 26 and 52 mg/kg; isovaleryl spiramycin II groups with doses of 13, 26 and 52 mg/kg; isovaleryl spiramycin III groups with doses of 13, 26 and 52 mg/kg. Each group was continuously administered intragastrically for 15 days with a dose of 20 ml/kg.
The tumor-bearing mice were weighed and sacrificed the next day after the last administration. The subcutaneous tumors were dissected and weighed. The average tumor weight of each group is calculated, and the tumor inhibition rate is calculated.
Tumor inhibition rate=(1−T/C)×100%
T: average tumor weight of the drug-administered group; C: average tumor weight of the blank control group.

[3] = system: transplanted tumor of human breast cancer cell MCF-7; test: MCF-7 transplanted tumor in nude mice
Protocol: as §1, with “group: a model group, a cyclophosphamide group,” for “group:”
as §2, §3

[4] = HT-29, high dose (100 mg/kg in method) i.g. 30 days
[5] = HT-29, low dose (25 mg/kg in method) i.g. 30 days
[6] = HT-29, medium dose (50 mg/kg in method) i.g. 30 days
[7] = MCF-7, 25 mg/kg (low dose) i.g. 30 days
[8] = MCF-7, 50 mg/kg (medium dose) i.g. 30 days
[9] = MCF-7, 100 mg/kg (high dose) i.g. 30 days

CO[C@@H]1[C@@H](O[C@@H]2O[C@H](C)[C@@H](O[C@H]3C[C@@](C)(O)[C@@H](OC(=O)CC(C)C)[C@H](C)O3)[C@H](N(C)C)[C@H]2O)[C@@H](CC=O)C[C@@H](C)[C@@H](O[C@H]2CC[C@H](N(C)C)[C@@H](C)O2)/C=C/C=C/C[C@@H](C)OC(=O)C[C@H]1O [Isovaleryl spiramycin I, isovaleryl spiramycin I]
Relative Tumor Proliferation Rate (T/C) [1, 4]: 29.11% | tumor growth inhibition rate [1, 4]: 70.14% | Relative Tumor Proliferation Rate (T/C) [1, 5]: 81.60% | tumor growth inhibition rate [1, 5]: 16.10% | tumor volume and relative tumor volume compared with the model group ([1]; HT-29, low, medium and high doses, P<0.05): significantly lower | Relative Tumor Proliferation Rate (T/C) [1, 6]: 49.22% | tumor growth inhibition rate [1, 6]: 49.72% | Inhibition Rate (%) ([1]; 25 mg/kg): 16.10% | Tumor Weight ([1]; 25 mg/kg): 1.97 ± 0.31 g | Inhibition Rate (%) ([1]; 50 mg/kg): 49.72% | Tumor Weight ([1]; 50 mg/kg): 1.18 ± 0.34 g | Inhibition Rate (%) ([1]; 100 mg/kg): 70.14% | Tumor Weight ([1]; 100 mg/kg): 0.70 ± 0.29 g | Relative Tumor Proliferation Rate (T/C) ([1]; dose 25 mg/kg): 81.60% | Relative Tumor Volume (RTV) ([1]; dose 25 mg/kg): 11.76 ± 4.03 | Tumor Volume (mm3) (d 1) ([1]; dose 25 mg/kg): 162.77 ± 38.95 mm3 | Tumor Volume (mm3) (d30) ([1]; dose 25 mg/kg): 1803.98 ± 271.55 mm3 | Relative Tumor Proliferation Rate (T/C) ([1]; dose 50 mg/kg): 49.22% | Relative Tumor Volume (RTV) ([1]; dose 50 mg/kg): 7.09 ± 1.47 | Tumor Volume (mm3) (d 1) ([1]; dose 50 mg/kg): 157.41 ± 37.31 mm3 | Tumor Volume (mm3) (d30) ([1]; dose 50 mg/kg): 1109.16 ± 320.27 mm3 | Relative Tumor Proliferation Rate (T/C) ([1]; dose 100 mg/kg): 29.11% | Relative Tumor Volume (RTV) ([1]; dose 100 mg/kg): 4.19 ± 2.23 | Tumor Volume (mm3) (d 1) ([1]; dose 100 mg/kg): 169.25 ± 35.39 mm3 | Tumor Volume (mm3) (d30) ([1]; dose 100 mg/kg): 648.93 ± 198.53 mm3 | mouse weight compared with the model group ([1]; mouse, in vivo): no significant changes | Body Weight (g) (d1) ([1]; mouse, in vivo, 25 mg/kg): 21.41 ± 1.41 g | Body Weight (g) (d30) ([1]; mouse, in vivo, 25 mg/kg): 20.98 ± 0.99 g | Body Weight (g) (d1) ([1]; mouse, in vivo, 50 mg/kg): 21.31 ± 1.53 g | Body Weight (g) (d30) ([1]; mouse, in vivo, 50 mg/kg): 20.56 ± 1.09 g | Body Weight (g) (d1) ([1]; mouse, in vivo, 100 mg/kg): 20.77 ± 1.13 g | Body Weight (g) (d30) ([1]; mouse, in vivo, 100 mg/kg): 21.19 ± 1.26 g | growth of Lewis lung cancer in mice ([2]; 13, 26 and 52 mg/kg i.g. 15 days): significantly inhibit | Tumor Volume (mm3) (d 1) ([2]; dose 12.5 mg/kg): 104.68 ± 20.89 mm3 | Tumor Volume (mm3) (d30) ([2]; dose 12.5 mg/kg): 955.73 ± 330.24 mm3 | Relative Tumor Proliferation Rate (T/C) ([2]; dose 12.5 mg/kg): 57.56 | Relative Tumor Volume (RTV) ([2]; dose 12.5 mg/kg): 9.22 ± 2.95 | Inhibition Rate (%) ([2]; dose 13 mg/kg): 46.94% | Tumor Weight ([2]; dose 13 mg/kg): 0.85 ± 0.24 g | Tumor Volume (mm3) (d 1) ([2]; dose 25 mg/kg): 104.31 ± 19.76 mm3 | Tumor Volume (mm3) (d30) ([2]; dose 25 mg/kg): 756.20 ± 145.84 mm3 | Relative Tumor Proliferation Rate (T/C) ([2]; dose 25 mg/kg): 45.51 | Relative Tumor Volume (RTV) ([2]; dose 25 mg/kg): 7.29 ± 0.82 | Inhibition Rate (%) ([2]; dose 26 mg/kg): 62.97% | Tumor Weight ([2]; dose 26 mg/kg): 0.59 ± 0.06 g | Tumor Volume (mm3) (d 1) ([2]; dose 50 mg/kg): 103.79 ± 19.55 mm3 | Tumor Volume (mm3) (d30) ([2]; dose 50 mg/kg): 465.26 ± 52.94 mm3 | Relative Tumor Proliferation Rate (T/C) ([2]; dose 50 mg/kg): 29.05 | Relative Tumor Volume (RTV) ([2]; dose 50 mg/kg): 4.65 ± 1.27 | Inhibition Rate (%) ([2]; dose 52 mg/kg): 71.83% | Tumor Weight ([2]; dose 52 mg/kg): 0.45 ± 0.14 g | Body Weight (g) (d1) ([2]; 13 mg/kg): 19.93 ± 1.20 g | Body Weight (g) (d 15) ([2]; 13 mg/kg): 22.70 ± 0.87 g | Body Weight (g) (d1) ([2]; 26 mg/kg): 19.45 ± 0.68 g | Body Weight (g) (d 15) ([2]; 26 mg/kg): 23.43 ± 1.41 g | Body Weight (g) (d1) ([2]; 52 mg/kg): 19.87 ± 1.17 g | Body Weight (g) (d 15) ([2]; 52 mg/kg): 23.25 ± 0.43 g | Inhibition Rate (tumor growth inhibition rate) [3, 7]: 31.10% | Relative Tumor Proliferation Rate (T/C) [3, 7]: 71.92% | Relative Tumor Volume (RTV) [3, 7]: 12.59 ± 7.49 | Tumor Volume (d 1) [3, 7]: 139.97 ± 26.58 mm3 | Tumor Volume (d 30) [3, 7]: 1634.85 ± 789.61 mm3 | Tumor Weight [3, 7]: 1.87 ± 0.25 g | Inhibition Rate (tumor growth inhibition rate) [3, 8]: 51.72% | Relative Tumor Proliferation Rate (T/C) [3, 8]: 49.05% | Relative Tumor Volume (RTV) [3, 8]: 8.58 ± 4.41 | Tumor Volume (d 1) [3, 8]: 146.57 ± 32.97 mm3 | Tumor Volume (d 30) [3, 8]: 1162.80 ± 394.71 mm3 | Tumor Weight [3, 8]: 1.31 ± 0.50 g | Inhibition Rate (tumor growth inhibition rate) [3, 9]: 70.12% | Relative Tumor Proliferation Rate (T/C) [3, 9]: 30.80% | Relative Tumor Volume (RTV) [3, 9]: 5.39 ± 0.97 | Tumor Volume (d 1) [3, 9]: 124.02 ± 15.14 mm3 | Tumor Volume (d 30) [3, 9]: 656.95 ± 49.58 mm3 | Tumor Weight [3, 9]: 0.81 ± 0.08 g | tumor volume and relative tumor volume compared with the model group ([3]; MCF-7, low, medium and high doses, P<0.05): significantly lower | mouse weight compared with the model group ([3]; mouse, in vivo): no significant changes
